Experimental data as given in patent publication US20250382298A1, “NITROGEN-CONTAINING COMPOUND AND USE THEREOF” (SUZHOU GENHOUSE BIO CO., LTD., priority 2022, published 2025).

Columns and labels:
HT-29 cells [1] = assay: Mitotic index analysis, pH3 expression in HT-29 cells; format: cell-based, human; settings: 24 h treatment
Summary of the method: (§1)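 HCT-116 or HT-29 cells treated 24 h with 9-point 3-fold dilutions from 10 μM, then fixed and immunostained for phospho-histone H3 with DRAQ5 counterstain. Near-infrared fluorescence read at 700/800 nm; pH3 expressed as % of DMSO control and EC50 fitted.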

BT-549 cells = assay: Detection of cell proliferation activity by CCK8 method (BT-549); format: cell-based; settings: CCK8, 96 h
Summary of the method: (§2)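 Cells seeded at 1500/well (BT-549, 1640 medium) or 2000/well (HT-29, HCT-116, McCoy's 5A), treated next day with 9-point 1:5 dilutions from 10 μM final, triplicate, for 96 h. CCK8 read at 450 nm after 2 h at 37 °C; inhibition versus DMSO, IC50 by non-linear regression.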

OVCAR3 cells [2] = assay: Detection of OVCAR3 cell proliferation activity by CTG method; format: cell-based; settings: CellTiter-Glo, 7 days
From the text: This assay can be used to examine the potency of compounds in inhibiting the proliferation of tumor cells (OVCAR3, HT-29, BT-549, HCT-116). A lower IC50 value indicates high potency of the compound as a KIF18A inhibitor in the following assay setup,
1640 medium; fetal bovine serum; penicillin/streptomycin antibiotics purchased from Wisent; CellTiter-Glo (chemiluminescence detection reagent for cell viability) reagent purchased from Promega; OVCAR3 cell line purchased from Nanjing Cobioer Biosciences Co., Ltd.; Nivo multimode microplate reader (PerkinElmer),
OVCAR3 cells were seeded into a white 96-well plate, with 80 μL of cell suspension containing 2000 OVCAR3 cells added to each well. The cell plate was incubated in a CO2 incubator overnight.
A test compound was 5-fold diluted to the 8th concentration (i.e., from 2 mM to […]) using a multichannel pipette, with duplicate wells set up. To an intermediate plate was added 78 μL of medium, and the serially diluted compound was transferred to the corresponding wells of the intermediate plate at 2 μL/well. The mixture was mixed well and then transferred to the cell plate at 20 μL/well. The concentration of the compound transferred to the cell plate ranged from 10 μM to 0.026 nM. The cell plate was incubated in a CO2 incubator for 7 days. Another cell plate was prepared and read for signal values on the day of compound addition, and these values were used as the maximum values (the Max value in the equation below) in data analysis. To this cell plate was added the chemiluminescence detection reagent for cell viability at 25 μL/well, and the luminescence signals were stabilized by incubation at room temperature for 10 min. Readings were taken using the multimode microplate reader.
To the cell plate was added the chemiluminescence detection reagent for cell viability at 25 μL/well, and the luminescence signals were stabilized by incubation at room temperature for 10 mm. Readings were taken using the multimode microplate reader, […]

HT-29 cells [3] = assay: Detection of cell proliferation activity by CCK8 method (HT-29); format: cell-based, human; settings: CCK8, 96 h
Summary of the method: as §2

HCT-116 cells [4] = assay: Mitotic index analysis, pH3 expression in HCT-116 cells; format: cell-based; settings: 24 h treatment
Summary of the method: as §1

OVCAR3 cells [5] = assay: Detection of cell proliferation activity by CCK8 method (OVCAR3); format: cell-based
Summary of the method: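 OVCAR3 tumor cells in log-phase growth were trypsinized, counted and plated at 180 μL per well in 96-well plates, with PBS in the outer wells. The following day, compounds were added in 9 concentrations (1:5 dilutions starting at 10 μM final) in triplicate alongside DMSO controls. After 96 h, medium was swapped for 100 μL medium containing 10% CCK8. Plates were incubated 2 h at 37° C and read at 450 nm. Background-corrected inhibition relative to DMSO was fitted by non-linear regression in GraphPad Prism 7.0 to obtain IC50.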

HCT-116 cells [6] = assay: Detection of cell proliferation activity by CCK8 method (HCT-116); format: cell-based; settings: CCK8, 96 h
Summary of the method: as §2

KIF18A = KIF18A (Homo sapiens (Human), UniProt Q8NI77); assay: KIF18A enzymatic activity inhibition, ADP-Glo kit; format: biochemical; settings: 4 nM KIF18A, 30 μM ATP
Chain of KIF18A (Q8NI77 1-467): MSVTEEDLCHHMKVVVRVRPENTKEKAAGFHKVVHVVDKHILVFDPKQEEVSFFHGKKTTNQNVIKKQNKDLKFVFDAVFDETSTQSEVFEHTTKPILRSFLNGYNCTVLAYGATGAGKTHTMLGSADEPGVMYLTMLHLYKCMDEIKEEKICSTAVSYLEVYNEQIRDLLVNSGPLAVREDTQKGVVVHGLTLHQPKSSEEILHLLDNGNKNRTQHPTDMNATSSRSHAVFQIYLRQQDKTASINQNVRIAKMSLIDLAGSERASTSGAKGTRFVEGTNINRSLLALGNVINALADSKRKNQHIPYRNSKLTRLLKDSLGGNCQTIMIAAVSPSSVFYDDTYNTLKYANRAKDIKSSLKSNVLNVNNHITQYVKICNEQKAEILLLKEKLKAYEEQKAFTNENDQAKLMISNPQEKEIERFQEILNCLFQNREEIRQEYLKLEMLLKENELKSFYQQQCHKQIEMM
Protocol: In this experiment, an ADP-Glo kit was used to detect the inhibitory activity of the compounds against KIF18A. Each compound was prepared into a 10 mM stock solution with DMSO, which was then diluted at 1:5 to obtain 9 gradients with the initial final concentration set at 10 μM. Meanwhile, a control group and a blank group were also set up. The reaction buffer consisted of 15 mM Tris (pH 7.5), 10 mM MgCl2, and 0.01% Pluronic F-68. 4 nM KIF18A (1467) and the test compound were added to a 384-well plate and incubated at 37° C. for 20 mm. Then, 30 μM ATP was added to initiate the enzymatic reaction, and the plate was incubated at room temperature for 15 min. Finally, the ADP-Glo reagent was added to detect the luminescence intensity, where the luminescence intensity is directly proportional to the ADP content. Inhibition rate (%)=[…]. Sample signal is the value of the compound group, and DMSO signal is the value of the DMSO control group. Then, the inhibition rate at each concentration was calculated, and the IC50 was determined by fitting using the GraphPadPrism 7.0 software.

[7] = Pharmacokinetic test in rats; format: in vivo; settings: SD rats, PO @5mpk; for AUC / Cmax / half-life: rat, plasma, 5 mg/kg; for half-life: read-out: t½ (converted)
Protocol: In this example, the pharmacokinetic behavior of the compounds after intravenous injection (IV) and intragastric (PO) administration in SD rats was tested.
On the day of administration, rats were weighed for actual body weight and the administration volume was calculated. Each compound was tested in two groups with 3 rats in each group; one group was subjected to administration by single intravenous injection, and the other group was subjected to single intragastric administration. Whole blood samples were collected via the jugular vein at prescribed time points (0.25 h, 0.5 h, 1 h, 2 h, 4 h, 8 h, and 24 h after administration). After blood sample collection, the samples were immediately transferred to labeled commercial sample tubes containing K2-EDTA (0.85-1.15 mg), followed by centrifugation (3200×g, 4° C., 10 min) and plasma collection. The plasma was transferred to a pre-cooled centrifuge tube, frozen in dry ice, and then stored in an ultra-low temperature freezer at −60° C. or lower until the LC-MS/MS analysis.
Plasma concentrations were determined by the LC-MS/MS method. Plasma drug concentration data for the compounds were processed using a non-compartmental model in the WinNonlin Version 6.3 (Pharsight, Mountain View, CA) pharmacokinetic software. The relevant pharmacokinetic parameters were calculated by a linear-log trapezoidal method.

O=C(Nc1cc2nn[nH]c2c(N2CCC(F)(F)CC2)n1)c1ccc(NS(=O)(=O)CCO)cc1N1CCC2(CC1)CC2 [Compound 28]
EC50 (HT-29 cells [1]): 77.8 nM | IC50 (BT-549 cells): 117 nM | IC50 (OVCAR3 cells [2]): 27.4 nM | IC50 (HT-29 cells [3]): 321 nM | EC50 (HCT-116 cells [4]): > 10 µM | IC50 (OVCAR3 cells [5]; CCK8, 96 h): 23.4 nM | IC50 (HCT-116 cells [6]): > 10 µM | IC50 (KIF18A): 33.4 nM

O=C(Nc1cn2ccnc2c(N2CC3(CCC3)C2)n1)c1ccc(NS(=O)(=O)CCO)cc1N1CCC2(CC1)CC2 [Compound 29]
EC50 (HT-29 cells [1]; Homo sapiens): 108 nM | IC50 (BT-549 cells; Homo sapiens): 1040 nM | IC50 (OVCAR3 cells [2]; Homo sapiens, OVCAR-3, 168 h): 220 nM | IC50 (HT-29 cells [3]; Homo sapiens): 335 nM | EC50 (HCT-116 cells [4]; Homo sapiens): > 10 µM | IC50 (OVCAR3 cells [5]; Homo sapiens, OVCAR-3, CCK8, 96 h): 206 nM | IC50 (HCT-116 cells [6]; Homo sapiens): > 10 µM | IC50 (KIF18A): 63.4 nM

O=C(Nc1cn2ccnc2c(N2CCOCC2)n1)c1ccc(NS(=O)(=O)CCO)cc1N1CCC2(CC1)CC2 [Compound 11]
EC50 (HT-29 cells [1]; Homo sapiens): 139 nM | F [7]: 25% | AUC [7]: 0.604 µM·h | Cmax [7]: 217 nM | half-life [7]: 144 min | IC50 (BT-549 cells; Homo sapiens): 109 nM | IC50 (OVCAR3 cells [2]; Homo sapiens, OVCAR-3, 168 h): 36 nM | IC50 (HT-29 cells [3]; Homo sapiens): 146 nM | EC50 (HCT-116 cells [4]; Homo sapiens): > 10 µM | IC50 (HCT-116 cells [6]; Homo sapiens): > 10 µM | IC50 (KIF18A): 15.2 nM

O=C(Nc1cn2cncc2c(N2CCC(F)(F)CC2)n1)c1ccc(NS(=O)(=O)CCO)cc1N1CCC2(CC1)CC2 [Compound 27]
EC50 (HT-29 cells [1]): 34.6 nM | IC50 (BT-549 cells): 81.9 nM | IC50 (OVCAR3 cells [2]): 38.6 nM | IC50 (HT-29 cells [3]): 141 nM | EC50 (HCT-116 cells [4]): > 10 µM | IC50 (OVCAR3 cells [5]; CCK8, 96 h): 27.2 nM | IC50 (HCT-116 cells [6]): > 10 µM | IC50 (KIF18A): 23.1 nM

O=C(Nc1cn2ccnc2c(N2CCCCC2)n1)c1ccc(NS(=O)(=O)CCO)cc1N1CCC2(CC1)CC2 [Compound 12]
EC50 (HT-29 cells [1]; Homo sapiens): 51 nM | F [7]: 18.3% | AUC [7]: 2.41 µM·h | Cmax [7]: 526 nM | half-life [7]: 156 min | IC50 (BT-549 cells; Homo sapiens): 34 nM | IC50 (OVCAR3 cells [2]; Homo sapiens, OVCAR-3, 168 h): 15 nM | IC50 (HT-29 cells [3]; Homo sapiens): 73 nM | EC50 (HCT-116 cells [4]; Homo sapiens): > 10 µM | IC50 (HCT-116 cells [6]; Homo sapiens): > 10 µM | IC50 (KIF18A): 10.2 nM
